Values quoted from earlier work as cited in patent US7993390B2, “Implantable or insertable medical device resistant to microbial growth and biofilm formation” (Boston Scientific Scimed, Inc., priority 2002, dated 2011).

System: most gram positive and gram negative aerobic and anaerobic bacteria, some yeast and fungi
Settings: most organisms tested

Compound: Oc1cc(Cl)ccc1Oc1ccc(Cl)cc1Cl [triclosan]
- MIC: < 0.3 ppm
